Laboratory results reported in US11434194B2, “Amorphous form of vilanterol trifenatate and processes for the preparation thereof” (Hovione Scientia Limited, priority 2017, dated 2022).
Each block holds one molecule with its values, some of them ahead of it.

Assays:
Type in all cases: physicochemical
[1] = Visual solubility in differing solvents (European Pharmacopeia 6.0 section 5.11)
Experimental: Visual solubility of the amorphous form of the invention in differing solvents was assessed according to the procedure described in the European Pharmacopeia 6.0 section 5.11. p. 659 (see corresponding SI dissolution ranges in Table 2), and compared with that for Form 1. The following method was used: Dissolving procedure: the compound was shaken vigorously for 1 min and placed in a constant temperature device for 15 min at 25.0±0.5° C. If the compound was not completely dissolved, the shaking was repeated for 1 min and the tube placed in a constant temperature device for 15 min. Method: 50 mg of compound was weighed in a stoppered tube, 0.05 mL of the solvent added and the Dissolving Procedure (see above) followed. If the compound was completely dissolved, it was defined very soluble. If the compound was not completely dissolved, a further 0.45 mL of the solvent was added and the Dissolving Procedure (see above) followed. […] If the compound was still not completely dissolved, still further 1.0 mL of the solvent was added and the Dissolving Procedure (see above) followed. If the compound was completely dissolved, it was defined as soluble. If the compound was still not completely dissolved, another 3.5 mL of the solvent was added and the Dissolving Procedure (see above) followed. […] If the compound was still not completely dissolved, the compound was slightly soluble or very slightly soluble. In this case, the suspension was heated up to the boiling point (max 80° C.) under stirring to verify the solubility at high temperature. The hot solution was afterwards cooled to room temperature to observe whether the compound precipitates. If the compound at room, temperature was completely dissolved, it is soluble at high temperature. [table]

[2] = Solid-state storage stability (XRPD pattern, HPLC chromatogram)
Experimental: Such conditions reflect conditions similar to those in which the current medicaments (mentioned above) may be stored.
HPLC analysis was conducted using a waters system under the following conditions:
X-ray powder patterns were recorded using the PANalytical X'Pert PRO X-ray diffraction system equipped with a PW3373/00 Cu LFF DK184511 X-Ray tube and a X'Celerator RTMS (Real Time Multiple Strip) detector under the following conditions: […]

[3] = Dynamic vapour sorption (DVS) analysis / kinetic moisture sorption, hygroscopicity; settings: for Change In Mass (%) Desorption / Change In Mass (%) Hysteresis / Change In Mass (%) Sorption: 25° C.
Experimental: The values in the table are weight % variations that result from the use of the European Pharmacopoeia equation provided below. The hygroscopicity value is indicated from the sorption row at 80% RH of cycle 1.
The sample was subjected to DVS measuring using SMS-DVS intrinsic. The kinetic moisture sorption measurement was performed at 25° C. and in a RH % range described in the following: • From 40% RH to 90% RH • Form 90% RH to 0% RH • From 0% RH to 90% RH • From 90% RH to 0% RH
The sample was analyzed by XRPD after the analysis.
The hygroscopicity was calculated using the following equation: % Weight Change=[(W2−W1)/W1]*100, (1) wherein W1 is the weight of the sample at the start of the experiment (25° C. and 40% RH), and W2 is the weight of the sample at 25° C. and 80% RH in the first absorption cycle.

visual solubility ([1]; 1,4-dioxane at 25° C.): freely soluble | visual solubility ([1]; THF at 25° C.): freely soluble | visual solubility ([1]; ethanol at 25° C.): sparingly soluble | visual solubility ([1]; methanol at 25° C.): soluble
SMILES: OCc1cc([C@@H](O)CNCCCCCCOCCOCc2c(Cl)cccc2Cl)ccc1O [Form I, 4-((1R)-2-((6-(2-((2,6-Dichlorophenyl)methoxy)ethoxy)-hexyl)amino)-1-hydroxyethyl)-2-(hydroxymethyl)phenol triphenylacetate]

XRPD patterns before and after exposure ([2]; 60% RH at 25° C. (7 days)): unchanged | time stable on storage (XRPD pattern and HPLC chromatograms remained the same) ([2]; room temperature): at least 5 months | visual solubility ([1]; 1,4-dioxane at 25° C., listed as amorphous of vilanterol trifenatate): soluble | visual solubility ([1]; ethanol at 50° C.): sparingly soluble | mass increase (dynamic vapour sorption analysis; hygroscopicity value) ([3]; 80% RH at 25° C., sorption, cycle 1): 1.34% | hygroscopicity classification (European Pharmacopeia version 7) ([3]; % weight change from 40% RH to 80% RH at 25° C., first absorption cycle): slightly hygroscopic | Change In Mass (%) Desorption ([3]; Cycle 1, target RH 0.0%): 1.186% | Change In Mass (%) Desorption ([3]; Cycle 1, target RH 10.0%): 1.224% | Change In Mass (%) Desorption ([3]; Cycle 1, target RH 20.0%): 1.257% | Change In Mass (%) Desorption ([3]; Cycle 1, target RH 30.0%): 1.298% | Change In Mass (%) Desorption ([3]; Cycle 1, target RH 40.0%): 1.333% | Change In Mass (%) Hysteresis ([3]; Cycle 1, target RH 40.0%): 1.332% | Change In Mass (%) Sorption ([3]; Cycle 1, target RH 40.0%): 0.001% | Change In Mass (%) Desorption ([3]; Cycle 1, target RH 50.0%): 1.368% | Change In Mass (%) Hysteresis ([3]; Cycle 1, target RH 50.0%): 1.101% | Change In Mass (%) Sorption ([3]; Cycle 1, target RH 50.0%): 0.267% | Change In Mass (%) Desorption ([3]; Cycle 1, target RH 60.0%): 1.401% | Change In Mass (%) Hysteresis ([3]; Cycle 1, target RH 60.0%): 0.784% | Change In Mass (%) Sorption ([3]; Cycle 1, target RH 60.0%): 0.618% | Change In Mass (%) Desorption ([3]; Cycle 1, target RH 70.0%): 1.437% | Change In Mass (%) Hysteresis ([3]; Cycle 1, target RH 70.0%): 0.423% | Change In Mass (%) Sorption ([3]; Cycle 1, target RH 70.0%): 1.013% | Change In Mass (%) Desorption ([3]; Cycle 1, target RH 80.0%): 1.474% | Change In Mass (%) Hysteresis ([3]; Cycle 1, target RH 80.0%): 0.131% | Change In Mass (%) Sorption ([3]; Cycle 1, target RH 80.0%): 1.344% | Change In Mass (%) Desorption ([3]; Cycle 1, target RH 90.0%): 1.516% | Change In Mass (%) Sorption ([3]; Cycle 1, target RH 90.0%): 1.516% | Change In Mass (%) Desorption ([3]; Cycle 2, target RH 0.0%): 1.063% | Change In Mass (%) Sorption ([3]; Cycle 2, target RH 0.0%): 1.186% | Change In Mass (%) Desorption ([3]; Cycle 2, target RH 10.0%): 1.186% | Change In Mass (%) Hysteresis ([3]; Cycle 2, target RH 10.0%): 0.006% | Change In Mass (%) Sorption ([3]; Cycle 2, target RH 10.0%): 1.180% | Change In Mass (%) Desorption ([3]; Cycle 2, target RH 20.0%): 1.214% | Change In Mass (%) Hysteresis ([3]; Cycle 2, target RH 20.0%): 0.035% | Change In Mass (%) Sorption ([3]; Cycle 2, target RH 20.0%): 1.179% | Change In Mass (%) Desorption ([3]; Cycle 2, target RH 30.0%): 1.243% | Change In Mass (%) Hysteresis ([3]; Cycle 2, target RH 30.0%): 0.061% | Change In Mass (%) Sorption ([3]; Cycle 2, target RH 30.0%): 1.182% | Change In Mass (%) Desorption ([3]; Cycle 2, target RH 40.0%): 1.269% | Change In Mass (%) Hysteresis ([3]; Cycle 2, target RH 40.0%): 0.079% | Change In Mass (%) Sorption ([3]; Cycle 2, target RH 40.0%): 1.189% | Change In Mass (%) Desorption ([3]; Cycle 2, target RH 50.0%): 1.294% | Change In Mass (%) Hysteresis ([3]; Cycle 2, target RH 50.0%): 0.090% | Change In Mass (%) Sorption ([3]; Cycle 2, target RH 50.0%): 1.205% | Change In Mass (%) Desorption ([3]; Cycle 2, target RH 60.0%): 1.320% | Change In Mass (%) Hysteresis ([3]; Cycle 2, target RH 60.0%): 0.093% | Change In Mass (%) Sorption ([3]; Cycle 2, target RH 60.0%): 1.228% | Change In Mass (%) Desorption ([3]; Cycle 2, target RH 70.0%): 1.345% | Change In Mass (%) Hysteresis ([3]; Cycle 2, target RH 70.0%): 0.084% | Change In Mass (%) Sorption ([3]; Cycle 2, target RH 70.0%): 1.262% | Change In Mass (%) Desorption ([3]; Cycle 2, target RH 80.0%): 1.369% | Change In Mass (%) Hysteresis ([3]; Cycle 2, target RH 80.0%): 0.061% | Change In Mass (%) Sorption ([3]; Cycle 2, target RH 80.0%): 1.308% | Change In Mass (%) Desorption ([3]; Cycle 2, target RH 90.0%): 1.393% | Change In Mass (%) Sorption ([3]; Cycle 2, target RH 90.0%): 1.393%
SMILES: OCc1cc([C@@H](O)CNCCCCCCOCCOCc2c(Cl)cccc2Cl)ccc1O [amorphous vilanterol trifenatate, 4-((1R)-2-((6-(2-((2,6-Dichlorophenyl)methoxy)ethoxy)-hexyl)amino)-1-hydroxyethyl)-2-(hydroxymethyl)phenol triphenylacetate]
